From US11168093B2, “Thienopyridine inhibitors of RIPK2” (Celgene Corporation, priority 2018, dated 2021)

The compounds below were run against RIPK2 enzyme (Homo sapiens (Human), UniProt O43353) (assay: RIPK2 inhibition assay, TR-FRET LanthaScreen Tracer 199 screening assay). Conditions: 5 nM RIPK2 enzyme, Tracer 199 at 50 nM, Eu-anti-His Antibody at 2 nM, 1 hour incubation.
Format: binding
Outline: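 TR-FRET binding displacement: 5 nM RIPK2, 50 nM Tracer 199, 2 nM Eu-anti-His antibody in 1× kinase reaction buffer, 1 h, read at room temperature (340 ex/665 and 615 em). No-enzyme background subtracted; percent inhibition versus uninhibited controls, IC50 from unconstrained variable-slope fit.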

RIPK2 enzyme, sequence (O43353 whole entry): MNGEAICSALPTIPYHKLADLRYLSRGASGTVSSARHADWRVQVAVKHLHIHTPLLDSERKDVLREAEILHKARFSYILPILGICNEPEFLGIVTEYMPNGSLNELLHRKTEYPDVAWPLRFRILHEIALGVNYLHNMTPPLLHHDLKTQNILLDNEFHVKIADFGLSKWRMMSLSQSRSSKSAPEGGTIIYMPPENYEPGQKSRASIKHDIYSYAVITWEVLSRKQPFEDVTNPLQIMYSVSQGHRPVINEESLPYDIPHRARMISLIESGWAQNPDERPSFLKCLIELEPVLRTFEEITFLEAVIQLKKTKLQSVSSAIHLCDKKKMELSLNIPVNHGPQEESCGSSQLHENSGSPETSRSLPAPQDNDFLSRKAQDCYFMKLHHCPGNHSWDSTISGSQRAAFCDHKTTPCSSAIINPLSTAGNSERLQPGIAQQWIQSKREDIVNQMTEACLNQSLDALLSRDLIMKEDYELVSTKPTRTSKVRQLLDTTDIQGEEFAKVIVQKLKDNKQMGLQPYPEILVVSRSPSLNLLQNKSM

IC50 [µM] | Compound
≥ 0.05 | Fc1cc2scnc2cc1Nc1ccnc2sc(C3CCNC34CCOCC4)cc12 (stereo not shown) [Example 84, N-(2-(8-oxa-1-azaspiro[4.5]decan-4-yl)thieno[2,3-b]pyridin-4-yl)-6-fluorobenzo[d]thiazol-5-amine]
0.02 to 0.05 | CCN1CCC[C@H](c2cc3c(Nc4cc5ncsc5cc4F)ccnc3s2)[C@@H]1C [Example 54b, N-(2-(1-ethyl-2-methylpiperidin-3-yl)thieno[2,3-b]pyridin-4-yl)-6-fluorobenzo[d]thiazol-5-amine]
≥ 0.05 | CCN1CCC(c2cc3c(Nc4cc5ncsc5cc4F)ccnc3s2)C12CCOC2 (stereo not shown) [Example 83, N-(2-(1-ethyl-7-oxa-1-azaspiro[4.4]nonan-4-yl)thieno[2,3-b]pyridin-4-yl)-6-fluorobenzo[d]thiazol-5-amine]
≤ 0.01 | COCCN1CCCC(c2cc3c(Nc4ccc5scnc5c4)ccnc3s2)C1C (stereo not shown) [Example 13, N-(2-(1-(2-methoxyethyl)-2-methylpiperidin-3-yl)thieno[2,3-b]pyridin-4-yl)benzo[d]thiazol-5-amine]
≤ 0.01 | C[C@@H]1[C@@H](c2cc3c(Nc4ccc5scnc5c4F)ccnc3s2)CCCN1C [Example 58, N-(2-((2R,3S)-1,2-dimethylpiperidin-3-yl)thieno[2,3-b]pyridin-4-yl)-4-fluorobenzo[d]thiazol-5-amine]
0.02 to 0.05 | CC1C(c2cc3c(Nc4cc5ncsc5cc4F)c(F)cnc3s2)CCCN1C (single isomer, unassigned) [Example 123d, N-(2-(1,2-dimethylpiperidin-3-yl)-5-fluorothieno[2,3-b]pyridin-4-yl)-6-fluorobenzo[d]thiazol-5-amine]
≥ 0.05 | CC1NCCCC1c1cc2c(Nc3ccc4scnc4c3F)c(F)cnc2s1 (single isomer, unassigned) [Example 124d, 4-fluoro-N-(5-fluoro-2-(2-methylpiperidin-3-yl)thieno[2,3-b]pyridin-4-yl)benzo[d]thiazol-5-amine]
0.02 to 0.05 | CCN1CCC(c2cc3c(Nc4cc5ncsc5cc4F)ccnc3s2)C1(C)C (stereo not shown) [Example 79, N-(2-(1-ethyl-2,2-dimethylpyrrolidin-3-yl)thieno[2,3-b]pyridin-4-yl)-6-fluorobenzo[d]thiazol-5-amine]
≤ 0.01 | CCN1CCC(c2cc3c(Nc4c(F)cc5scnc5c4F)ccnc3s2)C1C (stereo not shown) [Example 94, N-(2-(1-ethyl-2-methylpyrrolidin-3-yl)thieno[2,3-b]pyridin-4-yl)-4,6-difluorobenzo[d]thiazol-5-amine]
0.01 to 0.02 | CCN1CCC(c2cc3c(Nc4ccc5scnc5c4)ccnc3s2)C12CCOC2 (stereo not shown) [Example 45, N-(2-(1-ethyl-7-oxa-1-azaspiro[4.4]nonan-4-yl)thieno[2,3-b]pyridin-4-yl)benzo[d]thiazol-5-amine]
0.01 to 0.02 | CCC1C(c2cc3c(Nc4ccc5scnc5c4)ccnc3s2)CCCN1CC (stereo not shown) [Example 24, N-(2-(1,2-diethylpiperidin-3-yl)thieno[2,3-b]pyridin-4-yl)benzo[d]thiazol-5-amine]
≤ 0.01 | C[C@H]1NCCC[C@H]1c1cc2c(Nc3c(F)cc4scnc4c3F)ccnc2s1 [Example 67b, 4,6-difluoro-N-(2-((2R,3R)-2-methylpiperidin-3-yl)thieno[2,3-b]pyridin-4-yl)benzo[d]thiazol-5-amine]
≤ 0.01 | CCN1CCCC(c2cc3c(Nc4ccc5scnc5c4)ccnc3s2)C1C (stereo not shown) [Example 6, N-(2-(1-ethyl-2-methylpiperidin-3-yl)thieno[2,3-b]pyridin-4-yl)benzo[d]thiazol-5-amine]
≤ 0.01 | CCN1CCC[C@H](c2cc3c(Nc4ccc5scnc5c4F)ccnc3s2)[C@H]1C [Example 62, N-(2-((2R,3S)-1-ethyl-2-methylpiperidin-3-yl)thieno[2,3-b]pyridin-4-yl)-4-fluorobenzo[d]thiazol-5-amine]
≤ 0.01 | CC1NCCC1c1cc2c(Nc3c(F)cc4scnc4c3F)ccnc2s1 (stereo not shown) [Example 93, 4,6-difluoro-N-(2-(2-methylpyrrolidin-3-yl)thieno[2,3-b]pyridin-4-yl)benzo[d]thiazol-5-amine]
≤ 0.01 | CC1C(c2cc3c(Nc4ccc5scnc5c4)ccnc3s2)CCCN1C (stereo not shown) [Example 4, N-(2-(1,2-dimethylpiperidin-3-yl)thieno[2,3-b]pyridin-4-yl)benzo[d]thiazol-5-amine]
≤ 0.01 | CC1C(c2cc3c(Nc4ccc5scnc5c4)ccnc3s2)CCCCN1C (stereo not shown) [Example 116a, N-(2-(1,2-dimethylazepan-3-yl)thieno[2,3-b]pyridin-4-yl)benzo[d]thiazol-5-amine]
≤ 0.01 | CC1NCCCC1c1cc2c(Nc3ccc4scnc4c3)c(F)cnc2s1 (single isomer, unassigned) [Example 119c, N-(5-fluoro-2-(2-methylpiperidin-3-yl)thieno[2,3-b]pyridin-4-yl)benzo[d]thiazol-5-amine]

IC50 [µM] | Compound
≤ 0.01 | C[C@@H]1NCCC[C@@H]1c1cc2c(Nc3ccc4scnc4c3F)ccnc2s1 [Example 57b, 4-fluoro-N-(2-((2S,3S)-2-methylpiperidin-3-yl)thieno-[2,3-b]pyridin-4-yl)benzo[d]thiazol-5-amine]
≤ 0.01 | CC1(C)NCCC1c1cc2c(Nc3ccc4scnc4c3F)ccnc2s1 (stereo not shown) [Example 90, N-(2-(2,2-dimethylpyrrolidin-3-yl)thieno[2,3-b]pyridin-4-yl)-4-fluorobenzo[d]thiazol-5-amine]
≤ 0.01 | CC1(C)NCCC1c1cc2c(Nc3ccc4scnc4c3)ccnc2s1 (stereo not shown) [Example 33, N-(2-(2,2-dimethylpyrrolidin-3-yl)thieno[2,3-b]pyridin-4-yl)benzo[d]thiazol-5-amine]
≤ 0.01 | CN1CC=C(c2cc3c(Nc4ccc5scnc5c4)ccnc3s2)C1(C)C [Example 34, N-(2-(1,2,2-trimethyl-2,5-dihydro-1H-pyrrol-3-yl)thieno[2,3-b]pyridin-4-yl)benzo[d]thiazol-5-amine]
≤ 0.01 | CCN1CCC[C@@H](c2cc3c(Nc4ccc5scnc5c4F)ccnc3s2)[C@H]1C [Example 64, N-(2-((2R,3R)-1-ethyl-2-methylpiperidin-3-yl)thieno[2,3-b]pyridin-4-yl)-4-fluorobenzo[d]thiazol-5-amine]
0.02 to 0.05 | CC1NCCCC1c1cc2c(Nc3cc4ncsc4cc3F)c(F)cnc2s1 (single isomer, unassigned) [Example 122b, 6-fluoro-N-(5-fluoro-2-(2-methylpiperidin-3-yl)thieno[2,3-b]pyridin-4-yl) benzo[d]thiazol-5-amine]
0.01 to 0.02 | CC1C(c2cc3c(Nc4ccc5scnc5c4)ccnc3s2)CCCN1C1COC1 (stereo not shown) [Example 17, N-(2-(2-methyl-1-(oxetan-3-yl)piperidin-3-yl)thieno[2,3-b]pyridin-4-yl)benzo[d]thiazol-5-amine]
0.01 to 0.02 | CC(=O)N1CCC=C(c2cc3c(Nc4ccc5scnc5c4)ccnc3s2)C1C (stereo not shown) [Example 9, 1-(5-(4-(benzo[d]thiazol-5-ylamino)thieno[2,3-b]pyridin-2-yl)-6-methyl-3,6-dihydropyridin-1(2H)-yl)ethan-1-one]
≤ 0.01 | CC1NCCCC1c1cc2c(Nc3ccc4scnc4c3)c(F)cnc2s1 (single isomer, unassigned) [Example 119b, N-(5-fluoro-2-(2-methylpiperidin-3-yl)thieno[2,3-b]pyridin-4-yl)benzo[d]thiazol-5-amine]
≥ 0.05 | CCN1CCC(c2cc3c(Nc4cc5ncsc5cc4F)ccnc3s2)C12CCOCC2 (stereo not shown) [Example 86, N-(2-(1-ethyl-8-oxa-1-azaspiro[4.5]decan-4-yl)thieno[2,3-b]pyridin-4-yl)-6-fluorobenzo[d]thiazol-5-amine]
≤ 0.01 | CC1(C)NCCC1c1cc2c(Nc3cc4ncsc4cc3F)ccnc2s1 (stereo not shown) [Example 78a, N-(2-(2,2-dimethylpyrrolidin-3-yl)thieno[2,3-b]pyridin-4-yl)-6-fluorobenzo[d]thiazol-5-amine]
≤ 0.01 | C[C@@H]1C(c2cc3c(Nc4c(F)cc5scnc5c4F)ccnc3s2)=CCCN1C [Example 69, (R)—N-(2-(1,2-dimethyl-1,2,5,6-tetrahydropyridin-3-yl)thieno[2,3-b]pyridin-4-yl)-4,6-difluorobenzo[d]thiazol-5-amine]
0.01 to 0.02 | CN1CCC(c2cc3c(Nc4c(F)cc5scnc5c4F)ccnc3s2)C12CCOC2 (stereo not shown) [Example 100, 4,6-difluoro-N-(2-(1-methyl-7-oxa-1-azaspiro[4.4]nonan-4-yl)thieno[2,3-b]pyridin-4-yl)benzo[d]thiazol-5-amine]
≤ 0.01 | CC1C(c2cc3c(Nc4ccc5scnc5c4)ccnc3s2)CCCN1CCCN (stereo not shown) [Example 18, N-(2-(1-(3-aminopropyl)-2-methylpiperidin-3-yl)thieno[2,3-b]pyridin-4-yl)benzo[d]thiazol-5-amine]
≤ 0.01 | CN1CCCC(c2cc3c(Nc4ccc5scnc5c4)ccnc3s2)CC1 (stereo not shown) [Example 109, N-(2-(1-methylazepan-4-yl)thieno[2,3-b]pyridin-4-yl)benzo[d]thiazol-5-amine]
0.01 to 0.02 | CC1NCCCC1c1cc2c(Nc3c(F)cc4scnc4c3F)c(F)cnc2s1 (single isomer, unassigned) [Example 126d, 4,6-difluoro-N-(5-fluoro-2-(2-methylpiperidin-3-yl)thieno[2,3-b]pyridin-4-yl)benzo[d]thiazol-5-amine]
≤ 0.01 | CCN1CCCC(c2cc3c(Nc4ccc5scnc5c4)ccnc3s2)CC1 (stereo not shown) [Example 110, N-(2-(1-ethylazepan-4-yl)thieno[2,3-b]pyridin-4-yl)benzo[d]thiazol-5-amine]
≤ 0.01 | CC1C(c2cc3c(Nc4ccc5scnc5c4)ccnc3s2)=CCN1C (stereo not shown) [Example 27, N-(2-(1,2-dimethyl-2,5-dihydro-1H-pyrrol-3-yl)thieno[2,3-b]pyridin-4-yl)benzo[d]thiazol-5-amine]

Compound | IC50 [µM]
CC1C(c2cc3c(Nc4ccc5scnc5c4)ccnc3s2)CCCN1CC(F)F (stereo not shown) [Example 15, N-(2-(1-(2,2-difluoroethyl)-2-methylpiperidin-3-yl)thieno[2,3-b]pyridin-4-yl)benzo[d]thiazol-5-amine] | 0.02 to 0.05
